Data from BindingDB's records for doi:10.1021/acschembio.5b00817 (University of Leipzig, 2015).

What was measured:
[1] = molecular target: T1, Signal transducer and activator of transcription 5A (Homo sapiens, UniProt P42229); experiment: Fluorescence Polarization Assay
T1 sequence (P42229 whole entry): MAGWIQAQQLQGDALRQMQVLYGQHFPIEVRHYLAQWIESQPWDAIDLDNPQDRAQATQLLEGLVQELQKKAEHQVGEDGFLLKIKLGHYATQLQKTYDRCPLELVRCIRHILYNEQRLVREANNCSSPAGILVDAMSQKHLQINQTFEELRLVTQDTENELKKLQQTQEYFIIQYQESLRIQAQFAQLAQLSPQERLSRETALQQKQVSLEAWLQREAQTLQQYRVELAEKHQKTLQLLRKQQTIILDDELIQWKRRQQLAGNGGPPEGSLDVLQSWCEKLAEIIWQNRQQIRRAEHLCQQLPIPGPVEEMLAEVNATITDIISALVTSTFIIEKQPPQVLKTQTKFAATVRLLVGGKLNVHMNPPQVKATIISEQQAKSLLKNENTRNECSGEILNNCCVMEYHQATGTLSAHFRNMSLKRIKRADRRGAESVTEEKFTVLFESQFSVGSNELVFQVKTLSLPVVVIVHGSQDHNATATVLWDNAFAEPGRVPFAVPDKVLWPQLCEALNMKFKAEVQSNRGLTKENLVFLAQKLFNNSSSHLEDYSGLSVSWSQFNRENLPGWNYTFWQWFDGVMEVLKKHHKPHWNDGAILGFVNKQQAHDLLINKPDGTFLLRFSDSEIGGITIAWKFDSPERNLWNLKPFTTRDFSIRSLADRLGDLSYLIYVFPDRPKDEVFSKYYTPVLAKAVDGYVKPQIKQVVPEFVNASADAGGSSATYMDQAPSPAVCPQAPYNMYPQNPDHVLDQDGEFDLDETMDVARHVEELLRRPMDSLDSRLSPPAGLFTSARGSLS
Procedure: (§1) For competition-based fluorescence polarization assays, the ability of the test compounds to displace fluorophore-labeled peptides from their respective binding proteins was analyzed as previously described.3 Peptide sequences were: STAT1: 5-carboxyfluorescein-GY(PO3H2)DKPHVL; STAT3: 5-carboxyfluorescein-GY(PO3H2)LPQTV-NH2; STAT4: 5-carboxyfluorescein-GY(PO3H2)LPQNID-OH; STAT5a and STAT5b: 5-carboxyfluorescein-GY(PO3H2)LVLDKW; STAT6: 5-carboxyfluorescein-GY(PO3H2)VPWQDLI-OH; Lck SH2: 5-carboxyfluorescein-GY(PO3H2)EEIP. Due to protein instability, STAT2 was not analyzed. Final concentration of 5-carboxyfluorescein-labeled peptides: 10 nM. […] Pipetting was carried out partly using a Biomek FX workstation (Beckman-Coulter). Pr

[2] = molecular target: T2, Signal transducer and activator of transcription 5B (Homo sapiens, UniProt P51692); experiment: Fluorescence Polarization Assay
T2 sequence (P51692 whole entry): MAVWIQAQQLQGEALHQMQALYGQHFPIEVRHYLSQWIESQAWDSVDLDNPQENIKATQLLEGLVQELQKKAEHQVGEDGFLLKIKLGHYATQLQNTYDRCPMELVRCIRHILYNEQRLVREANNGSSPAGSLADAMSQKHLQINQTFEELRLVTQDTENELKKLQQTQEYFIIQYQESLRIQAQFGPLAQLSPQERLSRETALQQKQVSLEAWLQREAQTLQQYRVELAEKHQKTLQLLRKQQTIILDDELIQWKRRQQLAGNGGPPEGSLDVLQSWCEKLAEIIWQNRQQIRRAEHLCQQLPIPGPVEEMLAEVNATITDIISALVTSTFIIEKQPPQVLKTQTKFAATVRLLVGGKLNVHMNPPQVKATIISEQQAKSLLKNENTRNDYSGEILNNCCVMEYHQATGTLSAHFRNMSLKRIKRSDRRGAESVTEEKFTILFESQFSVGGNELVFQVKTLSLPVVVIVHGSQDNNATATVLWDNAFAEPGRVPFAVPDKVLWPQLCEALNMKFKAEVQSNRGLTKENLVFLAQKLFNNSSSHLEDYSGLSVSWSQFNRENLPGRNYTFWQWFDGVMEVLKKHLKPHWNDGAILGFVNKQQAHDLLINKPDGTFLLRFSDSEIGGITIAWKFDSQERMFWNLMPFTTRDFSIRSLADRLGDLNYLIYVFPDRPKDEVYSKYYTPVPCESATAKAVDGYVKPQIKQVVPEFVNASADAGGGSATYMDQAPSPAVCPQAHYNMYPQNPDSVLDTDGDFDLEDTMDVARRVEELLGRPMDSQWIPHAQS
Procedure: as §1

IC50 [1] [µM] | Ki [1] [µM] | IC50 [2] [µM] | Ki [2] [µM] | Compound
98 | 49 | 196 | 96 | CCCCCCCCC(=O)NCc1ccc(OP(=O)(O)O)c(OC)c1 [2-Methoxy-4-(nonanamidomethyl)phenyl dihydrogen phosphate (3b)]
24.9 | 12.3 | 0.86 | 0.39 | CCCCCCCCC(=O)NCc1ccc(OP(=O)(O)O)c(OP(=O)(O)O)c1 [4-(Nonanamidomethyl)-1,2-phenylene bis(dihydrogen phosphate) (6b)]
26.4 | 13 | 0.75 | 0.34 | CC(C)CCCCCCC(=O)NCc1ccc(OP(=O)(O)O)c(OP(=O)(O)O)c1 [4-((8-Methylnonanamido)methyl)-1,2-phenylene bis(dihydrogen phosphate) (6a)]
152 | 75 |  |  | COc1cc(CNC(=O)CCCCCCC(C)C)ccc1OP(=O)(O)O [2-Methoxy-4-((8-methylnonanamido)methyl)phenyl dihydrogen phosphate (3a)]
